# Laboratory results published in PubChem BioAssay (NCI).
#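 Test compounds were applied to cells in 96-well plates for 48 hours at 5 doses. GI50 is the concentration that inhibits growth by half. TGI: concentration producing complete growth inhibition.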
# Tests used:
# Assay in all cases: inhibition of tumour cell growth, NCI panel, 48 h
# 786-0 renal = system: 786-0 renal
# A549 NSCLC = system: A549 NSCLC
# ACHN renal = system: ACHN renal
# BT-549 breast = system: BT-549 breast
# CAKI-1 renal = system: CAKI-1 renal
# CCRF-CEM leukemia = system: CCRF-CEM leukemia
# COLO 205 colon = system: COLO 205 colon
# DU-145 prostate = system: DU-145 prostate
# HCC-2998 colon = system: HCC-2998 colon
# HCT-116 colon = system: HCT-116 colon
# HCT-15 colon = system: HCT-15 colon
# HL-60(TB) leukemia = system: HL-60(TB) leukemia
# HOP-62 NSCLC = system: HOP-62 NSCLC
# HOP-92 NSCLC = system: HOP-92 NSCLC
# HS 578T breast = system: HS 578T breast
# HT29 colon = system: HT29 colon
# IGROV1 ovarian = system: IGROV1 ovarian
# K-562 leukemia = system: K-562 leukemia
# KM12 colon = system: KM12 colon
# LOX IMVI melanoma = system: LOX IMVI melanoma
# M14 melanoma = system: M14 melanoma
# MCF7 breast = system: MCF7 breast
# MDA-MB-231 breast = system: MDA-MB-231 breast
# MDA-MB-435 = system: MDA-MB-435
# MOLT-4 leukemia = system: MOLT-4 leukemia
# NCI-H226 lung = system: NCI-H226 lung
# NCI-H23 lung = system: NCI-H23 lung
# NCI-H460 lung = system: NCI-H460 lung
# NCI-H522 lung = system: NCI-H522 lung
# NCI/ADR-RES ovarian = system: NCI/ADR-RES ovarian
# OVCAR-3 ovarian = system: OVCAR-3 ovarian
# OVCAR-4 ovarian = system: OVCAR-4 ovarian
# OVCAR-5 ovarian = system: OVCAR-5 ovarian
# OVCAR-8 ovarian = system: OVCAR-8 ovarian
# PC-3 prostate = system: PC-3 prostate
# RPMI-8226 leukemia = system: RPMI-8226 leukemia
# RXF 393 renal = system: RXF 393 renal
# SF-268 CNS = system: SF-268 CNS
# SF-295 CNS = system: SF-295 CNS
# SF-539 CNS = system: SF-539 CNS
# SK-MEL-2 melanoma = system: SK-MEL-2 melanoma
# SK-MEL-28 melanoma = system: SK-MEL-28 melanoma
# SK-MEL-5 melanoma = system: SK-MEL-5 melanoma
# SK-OV-3 ovarian = system: SK-OV-3 ovarian
# SN12C renal = system: SN12C renal
# SNB-19 CNS = system: SNB-19 CNS
# SNB-75 CNS = system: SNB-75 CNS
# SR leukemia = system: SR leukemia
# SW-620 colon = system: SW-620 colon
# T-47D breast = system: T-47D breast
# TK-10 renal = system: TK-10 renal
# U251 CNS = system: U251 CNS
# UACC-257 melanoma = system: UACC-257 melanoma
# UACC-62 melanoma = system: UACC-62 melanoma
# UO-31 renal = system: UO-31 renal
smiles,measurement,setting,value
CC(C)N(CCCNC(=O)Nc1ccc(C(C)(C)C)cc1)C[C@H]1O[C@@H](n2ccc3c(N)ncnc32)[C@H](O)[C@@H]1O,GI50,786-0 renal,> 100 µM
same,TGI,786-0 renal,> 100 µM
same,GI50,A549 NSCLC,> 100 µM
same,TGI,A549 NSCLC,> 100 µM
same,GI50,ACHN renal,> 100 µM
same,TGI,ACHN renal,> 100 µM
same,GI50,BT-549 breast,> 100 µM
same,TGI,BT-549 breast,> 100 µM
same,GI50,CAKI-1 renal,> 100 µM
same,TGI,CAKI-1 renal,> 100 µM
same,GI50,CCRF-CEM leukemia,> 100 µM
same,TGI,CCRF-CEM leukemia,> 100 µM
same,GI50,COLO 205 colon,> 100 µM
same,TGI,COLO 205 colon,> 100 µM
same,GI50,DU-145 prostate,> 100 µM
same,TGI,DU-145 prostate,> 100 µM
same,GI50,HCC-2998 colon,> 100 µM
same,TGI,HCC-2998 colon,> 100 µM
same,GI50,HCT-116 colon,> 100 µM
same,TGI,HCT-116 colon,> 100 µM
same,GI50,HCT-15 colon,> 100 µM
same,TGI,HCT-15 colon,> 100 µM
same,GI50,HL-60(TB) leukemia,> 100 µM
same,TGI,HL-60(TB) leukemia,> 100 µM
same,GI50,HOP-62 NSCLC,> 100 µM
same,TGI,HOP-62 NSCLC,> 100 µM
same,GI50,HOP-92 NSCLC,> 100 µM
same,TGI,HOP-92 NSCLC,> 100 µM
same,GI50,HS 578T breast,> 100 µM
same,TGI,HS 578T breast,> 100 µM
same,GI50,HT29 colon,> 100 µM
same,TGI,HT29 colon,> 100 µM
same,GI50,IGROV1 ovarian,> 100 µM
same,TGI,IGROV1 ovarian,> 100 µM
same,GI50,K-562 leukemia,> 100 µM
same,TGI,K-562 leukemia,> 100 µM
same,GI50,KM12 colon,> 100 µM
same,TGI,KM12 colon,> 100 µM
same,GI50,LOX IMVI melanoma,> 100 µM
same,TGI,LOX IMVI melanoma,> 100 µM
same,GI50,M14 melanoma,> 100 µM
same,TGI,M14 melanoma,> 100 µM
same,GI50,MCF7 breast,> 100 µM
same,TGI,MCF7 breast,> 100 µM
same,GI50,MDA-MB-231 breast,> 100 µM
same,TGI,MDA-MB-231 breast,> 100 µM
same,GI50,MDA-MB-435,> 100 µM
same,TGI,MDA-MB-435,> 100 µM
same,GI50,MOLT-4 leukemia,> 100 µM
same,TGI,MOLT-4 leukemia,> 100 µM
same,GI50,NCI-H226 lung,> 100 µM
same,TGI,NCI-H226 lung,> 100 µM
same,GI50,NCI-H23 lung,> 100 µM
same,TGI,NCI-H23 lung,> 100 µM
same,GI50,NCI-H460 lung,> 100 µM
same,TGI,NCI-H460 lung,> 100 µM
same,GI50,NCI-H522 lung,> 100 µM
same,TGI,NCI-H522 lung,> 100 µM
same,GI50,NCI/ADR-RES ovarian,> 100 µM
same,TGI,NCI/ADR-RES ovarian,> 100 µM
same,GI50,OVCAR-3 ovarian,> 100 µM
same,TGI,OVCAR-3 ovarian,> 100 µM
same,GI50,OVCAR-4 ovarian,> 100 µM
same,TGI,OVCAR-4 ovarian,> 100 µM
same,GI50,OVCAR-5 ovarian,> 100 µM
same,TGI,OVCAR-5 ovarian,> 100 µM
same,GI50,OVCAR-8 ovarian,> 100 µM
same,TGI,OVCAR-8 ovarian,> 100 µM
same,GI50,PC-3 prostate,> 100 µM
same,TGI,PC-3 prostate,> 100 µM
same,GI50,RPMI-8226 leukemia,> 100 µM
same,TGI,RPMI-8226 leukemia,> 100 µM
same,GI50,RXF 393 renal,> 100 µM
same,TGI,RXF 393 renal,> 100 µM
same,GI50,SF-268 CNS,> 100 µM
same,TGI,SF-268 CNS,> 100 µM
same,GI50,SF-295 CNS,> 100 µM
same,TGI,SF-295 CNS,> 100 µM
same,GI50,SF-539 CNS,> 100 µM
same,TGI,SF-539 CNS,> 100 µM
same,GI50,SK-MEL-2 melanoma,> 100 µM
same,TGI,SK-MEL-2 melanoma,> 100 µM
same,GI50,SK-MEL-28 melanoma,> 100 µM
same,TGI,SK-MEL-28 melanoma,> 100 µM
same,GI50,SK-MEL-5 melanoma,> 100 µM
same,TGI,SK-MEL-5 melanoma,> 100 µM
same,GI50,SK-OV-3 ovarian,> 100 µM
same,TGI,SK-OV-3 ovarian,> 100 µM
same,GI50,SN12C renal,> 100 µM
same,TGI,SN12C renal,> 100 µM
same,GI50,SNB-19 CNS,> 100 µM
same,TGI,SNB-19 CNS,> 100 µM
same,GI50,SNB-75 CNS,26.2 µM
same,TGI,SNB-75 CNS,> 100 µM
same,GI50,SR leukemia,> 100 µM
same,TGI,SR leukemia,> 100 µM
same,GI50,SW-620 colon,> 100 µM
same,TGI,SW-620 colon,> 100 µM
same,GI50,T-47D breast,> 100 µM
same,TGI,T-47D breast,> 100 µM
same,GI50,TK-10 renal,> 100 µM
same,TGI,TK-10 renal,> 100 µM
same,GI50,U251 CNS,> 100 µM
same,TGI,U251 CNS,> 100 µM
same,GI50,UACC-257 melanoma,> 100 µM
same,TGI,UACC-257 melanoma,> 100 µM
same,GI50,UACC-62 melanoma,> 100 µM
same,TGI,UACC-62 melanoma,> 100 µM
same,GI50,UO-31 renal,> 100 µM
same,TGI,UO-31 renal,> 100 µM
